Measured values reported in the supplement of paper PMC10307832.

Experiments:
Test in all cases: relative viability (nuclei count vs DMSO), 5 days (fraction); higher = more cells survive
[1] = compound: C#Cc1cccc(Nc2ncnc3cc(OC)c(OCCCCCCC(=O)NO)cc23)c1 [CUDC-101] + CC1(C)CCC(c2ccc(Cl)cc2)=C(CN2CCN(c3ccc(C(=O)NS(=O)(=O)c4ccc(N[C@H](CCN5CCOCC5)CSc5ccccc5)c(S(=O)(=O)C(F)(F)F)c4)cc3)CC2)C1 [Navitoclax] (partner 0.5 µM)
Outline: (§1)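 Relative viability is defined as nuclei in treated wells over nuclei in vehicle wells. Duplicate plates were run and medians reported. Lung cancer cell lines in 1536-well plates were dosed by pin tool one day after seeding, with one drug or with a fixed anchor-drug dose plus five library-drug doses (not always all listed) in √10 steps, and nuclei were counted after 5 days.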

[2] = compound: COc1cc(N2CCC(N3CCN(C)CC3)CC2)ccc1Nc1ncc(Cl)c(Nc2ccccc2S(=O)(=O)C(C)C)n1 [NVP-TAE684] + C[C@@H](Oc1cc(-c2cnn(C3CCNCC3)c2)cnc1N)c1c(Cl)ccc(F)c1Cl [Crizotinib] (partner 1 µM)
Outline: as §1

[3] = compound: C1=CC=C2C(=C1)N=C(S2)C(C#N)C3=NC(=NC=C3)NCCC4=CN=CC=C4 + C[C@]1(O)C[C@@H](c2nc(-c3ccc4ccc(-c5ccccc5)nc4c3)c3c(N)nccn32)C1 [Linsitinib] (partner 1 µM)
Outline: as §1

[4] = compound: COc1cc2/c(=N/c3ccc(Br)cc3F)nc[nH]c2cc1OCC1CCN(C)CC1 [Vandetanib] + Cc1cc(Nc2cc(N3CCN(C)CC3)nc(Sc3ccc(NC(=O)C4CC4)cc3)n2)n[nH]1 [Tozasertib] (partner 0.1 µM)
Outline: as §1

## NCI-H2126
[1]; first compound 0.01 µM
  relative viability: 0.889
[1]; first compound 0.03162 µM
  relative viability: 0.86
[1]; first compound 0.1 µM
  relative viability: 0.852
[1]; first compound 0.3162 µM
  relative viability: 0.815
[1]; first compound 1 µM
  relative viability: 0.649
[2]; first compound 0.2 µM
  relative viability: 1.08
[2]; first compound 0.6325 µM
  relative viability: 1.07
[2]; first compound 2 µM
  relative viability: 0.726
[3]; first compound 0.005 µM
  relative viability: 0.748
[3]; first compound 0.01581 µM
  relative viability: 0.739
[3]; first compound 0.05 µM
  relative viability: 0.705
[3]; first compound 0.1581 µM
  relative viability: 0.705
[3]; first compound 0.5 µM
  relative viability: 0.665
[4]; first compound 0.02 µM
  relative viability: 0.814
[4]; first compound 0.06325 µM
  relative viability: 0.8
[4]; first compound 0.2 µM
  relative viability: 0.795
[4]; first compound 0.6325 µM
  relative viability: 0.745
[4]; first compound 2 µM
  relative viability: 0.657

## NCI-H2228
[1]; first compound 0.01 µM
  relative viability: 0.941
[1]; first compound 0.03162 µM
  relative viability: 0.646
[1]; first compound 0.1 µM
  relative viability: 0.607
[1]; first compound 0.3162 µM
  relative viability: 1.11
[1]; first compound 1 µM
  relative viability: 0.846
[2]; first compound 0.2 µM
  relative viability: 0.476
[2]; first compound 0.6325 µM
  relative viability: 0.42
[2]; first compound 2 µM
  relative viability: 0.139
[3]; first compound 0.005 µM
  relative viability: 0.792
[3]; first compound 0.01581 µM
  relative viability: 0.762
[3]; first compound 0.05 µM
  relative viability: 0.629
[3]; first compound 0.1581 µM
  relative viability: 0.734
[3]; first compound 0.5 µM
  relative viability: 0.634
[4]; first compound 0.02 µM
  relative viability: 0.263
[4]; first compound 0.06325 µM
  relative viability: 0.304
[4]; first compound 0.2 µM
  relative viability: 0.124
[4]; first compound 0.6325 µM
  relative viability: 0.219
[4]; first compound 2 µM
  relative viability: 0.214

## NCI-H2347
[1]; first compound 0.01 µM
  relative viability: 0.88
[1]; first compound 0.03162 µM
  relative viability: 0.797
[1]; first compound 0.1 µM
  relative viability: 0.751
[1]; first compound 0.3162 µM
  relative viability: 0.937
[1]; first compound 1 µM
  relative viability: 0.783
[2]; first compound 0.2 µM
  relative viability: 0.683
[2]; first compound 0.6325 µM
  relative viability: 0.619
[2]; first compound 2 µM
  relative viability: 0.617
[3]; first compound 0.005 µM
  relative viability: 0.899
[3]; first compound 0.01581 µM
  relative viability: 0.854
[3]; first compound 0.05 µM
  relative viability: 0.954
[3]; first compound 0.1581 µM
  relative viability: 0.953
[3]; first compound 0.5 µM
  relative viability: 0.966
[4]; first compound 0.02 µM
  relative viability: 0.607
[4]; first compound 0.2 µM
  relative viability: 0.553
[4]; first compound 0.6325 µM
  relative viability: 0.563
[4]; first compound 2 µM
  relative viability: 0.674

## NCI-H2405
[1]; first compound 0.01 µM
  relative viability: 1.12
[1]; first compound 0.03162 µM
  relative viability: 0.842
[1]; first compound 0.1 µM
  relative viability: 0.953
[1]; first compound 0.3162 µM
  relative viability: 1.17
[1]; first compound 1 µM
  relative viability: 0.665
[2]; first compound 0.2 µM
  relative viability: 0.828
[2]; first compound 2 µM
  relative viability: 0.644
[3]; first compound 0.005 µM
  relative viability: 0.817
[3]; first compound 0.01581 µM
  relative viability: 0.889
[3]; first compound 0.05 µM
  relative viability: 0.847
[3]; first compound 0.1581 µM
  relative viability: 0.911
[3]; first compound 0.5 µM
  relative viability: 1.01
[4]; first compound 0.02 µM
  relative viability: 0.754
[4]; first compound 0.06325 µM
  relative viability: 0.716
[4]; first compound 0.2 µM
  relative viability: 0.738
[4]; first compound 0.6325 µM
  relative viability: 0.685
[4]; first compound 2 µM
  relative viability: 0.714

## NCI-H3122
[1]; first compound 0.01 µM
  relative viability: 0.982
[1]; first compound 0.03162 µM
  relative viability: 0.987
[1]; first compound 0.1 µM
  relative viability: 1.06
[1]; first compound 0.3162 µM
  relative viability: 1.05
[1]; first compound 1 µM
  relative viability: 1.06
[2]; first compound 0.2 µM
  relative viability: 0.243
[2]; first compound 0.6325 µM
  relative viability: 0.216
[2]; first compound 2 µM
  relative viability: 0.179
[3]; first compound 0.005 µM
  relative viability: 1.02
[3]; first compound 0.01581 µM
  relative viability: 0.992
[3]; first compound 0.05 µM
  relative viability: 1.04
[3]; first compound 0.1581 µM
  relative viability: 1.07
[3]; first compound 0.5 µM
  relative viability: 0.999
[4]; first compound 0.02 µM
  relative viability: 0.522
[4]; first compound 0.06325 µM
  relative viability: 0.36
[4]; first compound 0.2 µM
  relative viability: 0.372
[4]; first compound 0.6325 µM
  relative viability: 0.399
[4]; first compound 2 µM
  relative viability: 0.4

## PC-3 [JPC-3]
[1]; first compound 0.01 µM
  relative viability: 0.776
[1]; first compound 0.03162 µM
  relative viability: 0.749
[1]; first compound 0.1 µM
  relative viability: 0.506
[1]; first compound 0.3162 µM
  relative viability: 0.613
[1]; first compound 1 µM
  relative viability: 0.342
[2]; first compound 0.2 µM
  relative viability: 0.993
[2]; first compound 0.6325 µM
  relative viability: 1
[2]; first compound 2 µM
  relative viability: 0.946
[3]; first compound 0.005 µM
  relative viability: 0.898
[3]; first compound 0.01581 µM
  relative viability: 0.983
[3]; first compound 0.05 µM
  relative viability: 0.957
[3]; first compound 0.1581 µM
  relative viability: 0.942
[3]; first compound 0.5 µM
  relative viability: 0.965
[4]; first compound 0.02 µM
  relative viability: 0.851
[4]; first compound 0.06325 µM
  relative viability: 0.831
[4]; first compound 0.2 µM
  relative viability: 0.938
[4]; first compound 0.6325 µM
  relative viability: 0.776
[4]; first compound 2 µM
  relative viability: 0.491

## PC-14
[1]; first compound 0.01 µM
  relative viability: 1.08
[1]; first compound 0.03162 µM
  relative viability: 1.05
[1]; first compound 0.1 µM
  relative viability: 1.06
[1]; first compound 0.3162 µM
  relative viability: 0.754
[1]; first compound 1 µM
  relative viability: 0.265
[2]; first compound 0.2 µM
  relative viability: 0.994
[2]; first compound 0.6325 µM
  relative viability: 1.02
[2]; first compound 2 µM
  relative viability: 0.75
[3]; first compound 0.005 µM
  relative viability: 0.914
[3]; first compound 0.01581 µM
  relative viability: 1.07
[3]; first compound 0.05 µM
  relative viability: 0.972
[3]; first compound 0.1581 µM
  relative viability: 1.08
[3]; first compound 0.5 µM
  relative viability: 0.896
[4]; first compound 0.02 µM
  relative viability: 0.598
[4]; first compound 0.06325 µM
  relative viability: 0.542
[4]; first compound 0.2 µM
  relative viability: 0.554
[4]; first compound 0.6325 µM
  relative viability: 0.478
[4]; first compound 2 µM
  relative viability: 0.191

## RERF-LC-KJ
[1]; first compound 0.01 µM
  relative viability: 1.17
[1]; first compound 0.03162 µM
  relative viability: 1.07
[1]; first compound 0.1 µM
  relative viability: 1.21
[1]; first compound 0.3162 µM
  relative viability: 1.17
[1]; first compound 1 µM
  relative viability: 0.666
[2]; first compound 0.2 µM
  relative viability: 0.948
[2]; first compound 0.6325 µM
  relative viability: 0.781
[2]; first compound 2 µM
  relative viability: 0.792
[3]; first compound 0.005 µM
  relative viability: 1.01
[3]; first compound 0.01581 µM
  relative viability: 0.877
[3]; first compound 0.05 µM
  relative viability: 0.853
[3]; first compound 0.1581 µM
  relative viability: 0.861
[3]; first compound 0.5 µM
  relative viability: 0.781
[4]; first compound 0.02 µM
  relative viability: 0.549
[4]; first compound 0.06325 µM
  relative viability: 0.515
[4]; first compound 0.2 µM
  relative viability: 0.491
[4]; first compound 0.6325 µM
  relative viability: 0.439
[4]; first compound 2 µM
  relative viability: 0.477

## SK-LU-1
[1]; first compound 0.01 µM
  relative viability: 1.03
[1]; first compound 0.03162 µM
  relative viability: 0.774
[1]; first compound 0.1 µM
  relative viability: 0.852
[1]; first compound 0.3162 µM
  relative viability: 0.662
[1]; first compound 1 µM
  relative viability: 0.489
[2]; first compound 0.2 µM
  relative viability: 0.972
[2]; first compound 0.6325 µM
  relative viability: 0.81
[2]; first compound 2 µM
  relative viability: 0.412
[3]; first compound 0.01581 µM
  relative viability: 1.08
[3]; first compound 0.05 µM
  relative viability: 1.01
[3]; first compound 0.1581 µM
  relative viability: 1.47
[3]; first compound 0.5 µM
  relative viability: 1.07
[4]; first compound 0.02 µM
  relative viability: 0.36
[4]; first compound 0.06325 µM
  relative viability: 0.361
[4]; first compound 0.2 µM
  relative viability: 0.133
[4]; first compound 0.6325 µM
  relative viability: 0.292
[4]; first compound 2 µM
  relative viability: 0.317

## SK-MES-1
[1]; first compound 0.01 µM
  relative viability: 1.27
[1]; first compound 0.03162 µM
  relative viability: 1.37
[1]; first compound 0.1 µM
  relative viability: 1.28
[1]; first compound 0.3162 µM
  relative viability: 1.16
[1]; first compound 1 µM
  relative viability: 1.12
[2]; first compound 0.6325 µM
  relative viability: 0.983
[2]; first compound 2 µM
  relative viability: 0.804
[3]; first compound 0.005 µM
  relative viability: 1.17
[3]; first compound 0.01581 µM
  relative viability: 1.07
[3]; first compound 0.05 µM
  relative viability: 1.09
[3]; first compound 0.1581 µM
  relative viability: 1.12
[3]; first compound 0.5 µM
  relative viability: 0.97
[4]; first compound 0.02 µM
  relative viability: 0.93
[4]; first compound 0.06325 µM
  relative viability: 0.84
[4]; first compound 0.2 µM
  relative viability: 1.01
[4]; first compound 0.6325 µM
  relative viability: 1.04
[4]; first compound 2 µM
  relative viability: 0.847

## SW 1573
[1]; first compound 0.01 µM
  relative viability: 1.2
[1]; first compound 0.03162 µM
  relative viability: 0.897
[1]; first compound 0.1 µM
  relative viability: 0.951
[1]; first compound 0.3162 µM
  relative viability: 1.23
[1]; first compound 1 µM
  relative viability: 0.901
[2]; first compound 0.2 µM
  relative viability: 0.971
[2]; first compound 0.6325 µM
  relative viability: 0.805
[2]; first compound 2 µM
  relative viability: 0.673
[3]; first compound 0.005 µM
  relative viability: 0.725
[3]; first compound 0.01581 µM
  relative viability: 0.776
[3]; first compound 0.05 µM
  relative viability: 0.792
[3]; first compound 0.1581 µM
  relative viability: 0.895
[3]; first compound 0.5 µM
  relative viability: 0.745
[4]; first compound 0.02 µM
  relative viability: 0.153
[4]; first compound 0.06325 µM
  relative viability: 0.169
[4]; first compound 0.2 µM
  relative viability: 0.19
[4]; first compound 0.6325 µM
  relative viability: 0.174
[4]; first compound 2 µM
  relative viability: 0.195
